Where “and” joins values, the source holds several entries; their conditions need not be identical. Equal entries are not always repeated. Entries after “also recorded” stand apart in the source; their conditions may differ. Where two headings read alike, the source gives them in different places.
Key:
EGFR-TK = molecular target: T1, EGFR-TK (Homo sapiens, UniProt P00533); assay: EGFR-TK autophosphorylation inhibition (ELISA assay); format: biochemical
T1 construct: As a source of EGFR-TK, A431 human epidermoid carcinoma cell lysate was used; endogenous in cells; host or cells: A431 human epidermoid carcinoma cells (Triton X-100 lysate, EGFR captured by monoclonal antibody m108)
T1 sequence (P00533 25-1210): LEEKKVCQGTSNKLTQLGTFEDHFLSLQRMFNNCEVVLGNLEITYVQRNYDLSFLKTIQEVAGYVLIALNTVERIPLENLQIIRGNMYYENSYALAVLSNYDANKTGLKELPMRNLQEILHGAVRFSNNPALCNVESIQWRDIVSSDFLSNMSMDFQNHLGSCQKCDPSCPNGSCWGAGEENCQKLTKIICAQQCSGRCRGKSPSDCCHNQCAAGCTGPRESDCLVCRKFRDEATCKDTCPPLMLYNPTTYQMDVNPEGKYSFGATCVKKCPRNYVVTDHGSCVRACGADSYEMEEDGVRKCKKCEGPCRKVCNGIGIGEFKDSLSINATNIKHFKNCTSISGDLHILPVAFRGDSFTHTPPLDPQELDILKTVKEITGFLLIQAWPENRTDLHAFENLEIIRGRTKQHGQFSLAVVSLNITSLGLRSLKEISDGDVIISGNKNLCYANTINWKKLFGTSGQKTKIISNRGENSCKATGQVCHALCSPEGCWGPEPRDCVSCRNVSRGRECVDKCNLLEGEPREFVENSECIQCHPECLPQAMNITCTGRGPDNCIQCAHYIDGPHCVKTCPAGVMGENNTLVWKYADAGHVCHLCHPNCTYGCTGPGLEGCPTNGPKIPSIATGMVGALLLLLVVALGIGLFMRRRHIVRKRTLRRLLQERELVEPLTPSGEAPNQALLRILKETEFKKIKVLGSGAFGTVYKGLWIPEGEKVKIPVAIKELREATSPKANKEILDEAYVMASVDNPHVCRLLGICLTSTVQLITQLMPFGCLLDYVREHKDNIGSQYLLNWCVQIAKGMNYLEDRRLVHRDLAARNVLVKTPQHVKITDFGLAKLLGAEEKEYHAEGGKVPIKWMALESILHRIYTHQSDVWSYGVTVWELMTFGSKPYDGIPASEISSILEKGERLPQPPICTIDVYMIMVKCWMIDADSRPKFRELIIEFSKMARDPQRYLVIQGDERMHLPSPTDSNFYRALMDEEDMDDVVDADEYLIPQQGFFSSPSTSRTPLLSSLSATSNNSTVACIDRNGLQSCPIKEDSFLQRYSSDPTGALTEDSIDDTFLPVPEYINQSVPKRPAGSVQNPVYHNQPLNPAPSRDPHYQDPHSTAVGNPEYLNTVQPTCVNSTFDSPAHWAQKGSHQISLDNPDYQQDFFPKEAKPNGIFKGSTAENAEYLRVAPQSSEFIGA
Protocol: Autophosphorylation Inhibition Experiments:
EGFR-TK source: As a source of EGFR-TK, A431 human epidermoid carcinoma cell lysate was used. A431 cells were grown in DMEM containing 10% fetal calf serum and antibiotics penicillin and streptomycin). After several days, the cells were removed from the flasks by incubation at 37° C. with PBS/i mM EDTA buffer for 1 hour. […] Cell lysate was obtained with a further centrifugation (10,000 rpm×10 minutes at 4° C.), and the supernatant was collected and frozen at -70° C. in aliquots.
ELISA assay: EGFR-TK autophosphorylation IC50 values were obtained by means an ELISA assay. All the following incubations were performed at room temperature and with constant shaking. After each step the plate was washed with water (5×) and TBST buffer (1×). The final volume for each well was 150 μl. A Coming 96 well ELISA plate was coated with monoclonal anti EGFR antibody m108 (Sugen Inc.) diluted in PBS (pH 8.2), and kept overnight at 4° C.
After removing the unbound m108, the plate was washed and PBS containing 5% milk (1% fat) was added for the blocking (25 minutes). One aliquot of A431 cell lysate was thawed and added to the plate.
After 25 minutes, seven different concentrations of each inhibitor were added, and for each case one well was left as a control. All inhibitors were diluted in TBS/DMSO and the final concentration of DMSO was 0.05% in each well (including the controls).
After 25 minutes, and without washing the plate, ATP/MnCl2 solution was added in each well. The final concentration was 3 μM ATP/5 mM MnCl2. In this step the temperature was kept at 26° C. and the plate was under constant shaking. The incubation with ATP/MnCl2 was for 5 minutes.
Then, to stop the phosphorylation reaction, EDTA was added (pH 8, final concentration in each well 20 mM) and after 1 minute all the plate was washed.
Afterward, polyclonal anti-phosphotyrosine serum (Sugen, Inc.) was added (dilution of antibody in TBST containing 5% milk). The incubation was for 45 minutes.
For the calorimetric detection of phosphotyrosine in EGFR-TK, TAGO anti-rabbit peroxidase conjugate antibody (Sugen, Inc.) was added in TBST/5% milk solution (45 minutes).
After washing, the colorimetric reaction was performed by adding ABTS/H2 O2 in citrate-phosphate buffer.
The analysis of the data was performed with "Regression" software.
Since the exact concentrations of m108 in the stock solution and EGFR-TK in the cell lysate were unknown, an experiment was performed to determine the optimal dilution of m108 stock and lysate. Stock m108 (approx. 0.2-0.5 μg/μl) was diluted 1:400, 1:600, 1:800 and 1:1000 with PBS, while A431 cell lysate was diluted 1:2, 1:4, 1:6, 1:8, and 1:10.

[1] = cited from earlier work
[2] = average ± SEM, A431 cell lysate, 3 μM ATP/5 mM MnCl2, Table 1, read-out: Autophosphorylation IC50
[3] = read-out: IC50 toward epidermal growth factor receptor tyrosine kinase activity (autophosphorylation)

Row | SMILES | EGFR-TK autophosphorylation inhibitor potency (EGFR-TK) | IC50 (EGFR-TK; [2]) [nM] | IC50 (EGFR-TK; [3]) | plasma level after approximately 3 hours, % of the maximum ([1]; of maximum, after approximately 3 hours) [%] | metabolism ([1]; two identified as 6- and 7-monodemethylated derivatives)
1 | COc1cc2ncnc(Nc3cc(Cl)c(Cl)cc3F)c2cc1OC [Compound 4, 4-[(3,4-Dichloro-6-fluorophenyl)amino]-6,7-dimethoxyquinazoline] | most potent inhibitor; also recorded: very potent EGFR-TK autophosphorylation inhibitor | 0.22 ± 0.18 | 0.22 nM |  | 
2 | COc1cc2ncnc(Nc3cccc(Br)c3)c2cc1OC [PD 153035] |  |  |  | 2 | metabolism to four compounds
3 | COc1cc2ncnc(Nc3ccc(F)cc3)c2cc1OC [Compound 1, 4-[(4-Fluorophenyl)amino]-6,7-dimethoxyquinazoline] |  | 76.1 ± 3.2 | 76 nM and 76.1 nM |  | 
4 | COc1cc2ncnc(Nc3cc(F)cc(C(F)(F)F)c3)c2cc1OC [Compound 3, ^4-[(3-Fluoro-5-trifluoromethylphenyl)amino]-6,7-dimethoxyquinazoline] |  | 116 ± 14 | 116 nM |  | 
